# Laboratory results reported in BindingDB's records for doi:10.1046/j.1471-4159.1998.71062558.x (F. Hoffmann-La Roche, 1998).
# Biological target: Metabotropic glutamate receptor 2 (Homo sapiens, UniProt Q14416)
# Sequence (Q14416 whole entry): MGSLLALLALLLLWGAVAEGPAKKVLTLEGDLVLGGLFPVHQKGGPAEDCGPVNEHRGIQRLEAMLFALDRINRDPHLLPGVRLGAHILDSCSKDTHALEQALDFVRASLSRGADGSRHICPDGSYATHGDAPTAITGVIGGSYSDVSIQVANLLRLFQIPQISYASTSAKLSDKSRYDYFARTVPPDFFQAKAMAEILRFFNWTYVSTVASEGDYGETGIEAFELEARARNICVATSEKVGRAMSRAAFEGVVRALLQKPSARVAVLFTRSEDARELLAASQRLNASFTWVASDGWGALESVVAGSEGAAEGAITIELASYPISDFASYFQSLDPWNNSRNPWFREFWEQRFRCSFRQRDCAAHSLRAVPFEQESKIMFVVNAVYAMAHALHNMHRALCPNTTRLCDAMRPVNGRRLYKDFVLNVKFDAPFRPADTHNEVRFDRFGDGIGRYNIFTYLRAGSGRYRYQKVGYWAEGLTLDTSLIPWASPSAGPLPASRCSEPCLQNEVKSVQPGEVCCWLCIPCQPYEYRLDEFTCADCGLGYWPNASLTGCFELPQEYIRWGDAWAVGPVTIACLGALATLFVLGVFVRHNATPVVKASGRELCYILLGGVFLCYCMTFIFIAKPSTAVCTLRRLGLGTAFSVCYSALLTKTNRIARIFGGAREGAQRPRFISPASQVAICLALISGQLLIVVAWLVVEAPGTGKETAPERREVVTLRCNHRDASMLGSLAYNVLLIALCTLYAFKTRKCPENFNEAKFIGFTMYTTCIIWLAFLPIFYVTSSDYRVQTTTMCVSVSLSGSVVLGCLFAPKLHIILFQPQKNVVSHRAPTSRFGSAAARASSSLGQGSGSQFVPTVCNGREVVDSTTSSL
row,Ki,Structure (SMILES)
1,69 nM,C[C@](N)(C(=O)O)C1C[C@@H]1C(=O)O (stereo partly specified) [MCCG-I]
2,334 nM,C[C@@](N)(C(=O)O)c1ccc(C(=O)O)cc1 (racemic)
3,376 nM,CCC(N)(CCC(=O)O)C(=O)O (stereo unspecified) [CAS_5311079]
4,0.378 nM,N[C@H](C(=O)O)[C@H]1C[C@H]1C(=O)O [L-CCG-IV]
5,0.078 nM,NC(Cn1cnc2c(=O)[nH]c(=O)[nH]c21)(C(=O)O)C1CC1C(=O)O (stereo unspecified) [CAS_5311260]
6,0.368 nM,N[C@H](C(=O)O)C1[C@@H](C(=O)O)[C@@H]1C(=O)O (stereo partly specified) [DCG-IV]

# Second part, the molecule before the results:
row,Structure (SMILES),Ki
1,N[C@@H](CCP(=O)(O)O)C(=O)O,680 nM
2,"N[C@@H](Cn1oc(=O)[nH]c1=O)C(=O)O [2-amino-3-(3,5-dioxo[1,2,4]oxadiazolidin-2-yl)propionic acid]",178 nM
3,N[C@H](CP(=O)(O)O)C(=O)O [CAS_23052-80-4],263 nM
4,"N[C@@]1(C(=O)O)CC[C@H](C(=O)O)C1 [1S, 3R-ACPD]",9.33 nM
5,CC(N)(C(=O)O)c1ccc(P(=O)(O)O)cc1 (stereo unspecified),260 nM
